Results from PubChem BioAssay AID624373 (Broad Institute, 2012).
Results filed as inconclusive are left out. Active and inactive are the calls of the source.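 The calls were made as follows: active = fitted curve reaches -35% activity change at up to twice the top valid dose, with every replicate test run active; inconclusive = replicate test runs disagree on the call; inactive = all runs inactive, no -35% crossing or signal rises.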

Key:
[1] = system: HEK293 LMP1-TES2 NF-kB luciferase reporter, 16 h; test: LMP1 TES2 NF-kB reporter inhibitors, dose response, cell-based, HEK293, luciferase, dry powder (AID 624373)
[2] = as above; conditions: HEK293 LMP1-TES2 NF-kB luciferase reporter, 16 h

Row | Structure (SMILES) | AC35 [1] [nM] | further results
1 | O=C1/C(=C/c2ccncc2)SC(=S)N1Cc1ccccc1 | 18200 | –
2 | Nc1ccn([C@@H]2O[C@H](CO)[C@@H](O)C2O)c(=O)n1 (some centres undefined) | 8540 | –
3 | C[C@H](CO)N1C[C@H](C)[C@@H](CN(C)Cc2ccc(-c3ccccc3)cc2)Oc2ccc(NC(=O)Nc3cccc4ccccc34)cc2CC1=O | 2360 | –
4 | O=C(CSc1nnc2c3ccccc3n(Cc3ccccc3)c2n1)NCc1ccco1 | 2100 | –
5 | O=C(Nc1cc(C(F)(F)F)cc(C(F)(F)F)c1)Nc1cnn(-c2ccc([N+](=O)[O-])cc2)c1C(F)(F)F | – | activity change, negative = inhibition ([2]; at 26 µM (top of the series)): 10.5% (inactive)
6 | C[C@@H]1CCCCO[C@@H](CN(C)Cc2ccccc2)[C@H](C)CN([C@H](C)CO)C(=O)c2cc(NC(=O)Nc3ccc4c(c3)OCO4)ccc2O1 | – | activity change, negative = inhibition ([2]; at 26 µM (top of the series)): 10.6% (inactive)
7 | C/C(=N\NC(=S)Nc1ccc(C)cc1)c1ccccn1 | 142 | –
8 | CC(C)=CCN(C(=O)C#Cc1ccccc1)[C@H](CO)c1ccccc1 | 1880 | –
9 | C/C(=N\NC(=S)N1CCC1)c1ccccn1 | 679 | –
10 | CSC(=S)N/N=C(\C)c1cccc(C)n1 | 3010 | –
11 | CC1CN(C(=O)CSc2nnc3c4ccccc4n(Cc4cccc(Cl)c4)c3n2)CCN1C(=O)c1ccccc1F (centres undefined) | 4360 | –
12 | Cc1cc(NC(=O)c2ccc3c(c2)OCCO3)no1 | – | activity change, negative = inhibition ([2]; at 26 µM (top of the series)): 1.38% (inactive)
13 | C/C(=N\NC(=S)Nc1cccc(Cl)c1)c1ccccn1 | 314 | –
14 | CC12CCC3C(CC=C4CC(O)CCC43CO)C1CCC2OC(=O)c1ccccc1 (centres undefined) | 3060 | –
15 | C[C@@H]1CN([C@@H](C)CO)C(=O)c2cc(NC(=O)Nc3ccc(C(F)(F)F)cc3)ccc2O[C@@H](C)CCCCO[C@H]1CN(C)Cc1ccc(C(F)(F)F)cc1 | – | activity change, negative = inhibition ([2]; at 26 µM (top of the series)): 52.3% (inactive)
16 | C/C=C/C/C=C/CCC(=O)[C@H]1O[C@H]1C(N)=O | 12000 | –
17 | Cc1ccc(S(=O)(=O)Nc2ccc3c(c2)C(=O)N([C@@H](C)CO)C[C@H](C)[C@@H](CN(C)C(=O)CCC(F)(F)F)OCCCC[C@H](C)O3)cc1 | 288 | –
18 | Oc1cccc(C(Nc2nccs2)c2ccc3cccnc3c2O)c1 (centres undefined) | – | activity change, negative = inhibition ([2]; at 26 µM (top of the series)): 33.9% (inactive)
19 | Fc1ccc2c(c1)c1nnc(SCCN3CCOCC3)nc1n2Cc1ccccc1 | 3940 | –
20 | CCC(Sc1nnc2c3ccccc3n(Cc3ccc(Br)cc3)c2n1)C(=O)NCCCN1CCOCC1 (centres undefined) | 3200 | –

Row | Structure (SMILES) | AC35 [1] [nM] | further results
21 | C/C(=N\NC(=S)N1CCCC1)c1ccccn1 | 262 | –
22 | S=C(NCc1ccccn1)N/N=C/c1ccccn1 | 1010 | –
23 | C=C1C[C@]23C[C@@]1(O)CC[C@@H]2c1cccc(C)c1[C@@H]3C(=O)O | 4340 | –
24 | C/C(=N\NC(=S)N1CCCCC1)c1cccc(C)n1 | 259 | –
25 | C[C@@H]1CN([C@@H](C)CO)C(=O)c2cc(NC(=O)Nc3ccc(C(F)(F)F)cc3)ccc2O[C@@H](C)CCCCO[C@@H]1CN(C)CC1CCCCC1 | 1860 | –
26 | CCc1ccc(/C=C2\SC(=S)N(CCCC(=O)Nc3ccccn3)C2=O)cc1 | – | activity change, negative = inhibition ([2]; at 26 µM (top of the series)): 12.1% (inactive)
27 | C[C@H]1CCCCO[C@@H](CN(C)CC2CCCCC2)[C@@H](C)CN([C@@H](C)CO)C(=O)c2cc(NC(=O)C3CCCCC3)ccc2O1 | 9980 | –
28 | C[C@H](CO)N1C[C@H](C)[C@H](CN(C)C(=O)Nc2ccc(C(F)(F)F)cc2)OCCCC[C@H](C)Oc2ccc(NC(=O)Nc3ccc(F)cc3)cc2C1=O | 5400 | –
29 | C/C(=N\NC(=S)N1CC2CCC(CC2)C1)c1ccncn1 | 2500 | –
30 | CCCSc1nnc2c3ccccc3n(Cc3ccccc3)c2n1 | 3400 | –
31 | Cc1ccc(S(=O)(=O)NC(CC(C)C)C(=O)NCC(c2ccco2)N2CCCCC2)cc1 (centres undefined) | – | activity change, negative = inhibition ([2]; at 26 µM (top of the series)): -8.46% (inactive)
32 | Cc1c(NC(=O)c2cccc(NC(=O)COc3ccccc3C#N)c2)c(=O)n(-c2ccccc2)n1C | – | activity change, negative = inhibition ([2]; at 26 µM (top of the series)): 23.3% (inactive)
33 | COc1ccc(NC(=O)c2ccc(OC(C)C(=O)O)cc2)cc1Cl (centres undefined) | 11800 | –
34 | C[C@H](CO)N1C[C@H](C)[C@@H](CN(C)CC2CCCCC2)OCCCC[C@H](C)Oc2ccc(NC(=O)Nc3cccc4ccccc34)cc2C1=O | – | activity change, negative = inhibition ([2]; at 26 µM (top of the series)): 27.7% (inactive)
35 | C/C(=N\NC(=S)Nc1ccccc1)c1ccccn1 | 313 | –
36 | O=c1[nH]c(=O)n([C@H]2C[C@H](O)[C@@H](CO)O2)cc1C(F)(F)F | 3090 | –
37 | COc1ccc(-c2csc3ncnc(NCCN4CCOCC4)c23)cc1 | – | activity change, negative = inhibition ([2]; at 26 µM (top of the series)): 30.3% (inactive)
38 | COc1ccc(-c2cc3nc4n(c(=O)c3s2)CCC4)cc1 | – | activity change, negative = inhibition ([2]; at 26 µM (top of the series)): 23.4% (inactive)
39 | Cc1ccc(NC(=O)C2CCN(S(=O)(=O)c3ccc4c(c3)NC(=O)C(C)S4)CC2)cc1Cl (centres undefined) | 1650 | –
40 | COCCCNC(=O)C(C)Sc1nnc2c3cc(C)ccc3n(Cc3ccccc3F)c2n1 (centres undefined) | 5010 | –

Row | Structure (SMILES) | AC35 [1] [nM] | further results
41 | C[C@@H]1CN([C@@H](C)CO)C(=O)c2cc(NC(=O)Nc3ccc4c(c3)OCO4)ccc2O[C@H]1CN(C)CC1CCCCC1 | 895 | –
42 | C/C(=N\NC(=S)N1CCCCC1)c1ccccn1 | 212 | –
43 | C/C(=N\NC(=S)Nc1ccccc1Cl)c1ccccn1 | 457 | –
44 | CCN1CCN(C(c2cccnc2)c2cc(Cl)c3cccnc3c2O)CC1 (centres undefined) | 3320 | –
45 | COc1ccc2[nH]c(C(=O)N/N=C/c3ccc(O)cc3O)cc2c1 | 3630 | –
46 | C/C(=N\NC(=S)N1CC2CCC(CC2)C1)c1ccccn1 | 1180 | –
47 | C/C(=N\NC(=S)N1CCCCCC1)c1ccccn1 | 216 | –
48 | C[C@@H]1CCCCO[C@H](CN(C)CC2CCCCC2)[C@H](C)CN([C@@H](C)CO)C(=O)c2cc(NC(=O)NC3CCCCC3)ccc2O1 | – | activity change, negative = inhibition ([2]; at 26 µM (top of the series)): 56.5% (inactive)
49 | Cc1ccnc(NC(=O)c2ccc(C(=O)c3ccccc3)cc2)c1 | 11000 | –
50 | COc1ccccc1[C@]1(C)ON(c2ccccc2C(F)(F)F)C1=O | 8160 | –
51 | c1ccc(-c2cn3c4c(sc3n2)CCCC4)cc1 | – | activity change, negative = inhibition ([2]; at 26 µM (top of the series)): 7.22% (inactive)
52 | C[C@H](CO)N1C[C@H](C)[C@@H](CN(C)CC2CC2)OCCCC[C@H](C)Oc2ccc(NC(=O)Nc3cccc4ccccc34)cc2C1=O | 351 | –
53 | C[C@@H]1CCCCO[C@H](CN(C)C(=O)NC2CCCCC2)[C@H](C)CN([C@@H](C)CO)C(=O)c2cc(NC(=O)C3CCCCC3)ccc2O1 | 6420 | –
54 | C/C(=N\NC(=S)N1CC2CCC(CC2)C1)c1cccc(C)n1 | 637 | –
55 | C=C1C[C@]23C[C@@]1(O)CC[C@H]2[C@@]12C=C[C@H](O)[C@@](C)(C(=O)O1)[C@H]2[C@@H]3C(=O)O | – | activity change, negative = inhibition ([2]; at 15 µM (top of the series)): 2.14% (inactive)
56 | c1ccc(Cn2c3ccccc3c3nnc(SCCN4CCCCC4)nc32)cc1 | 18700 | –
57 | CNC[C@@H]1Oc2ccc(NS(=O)(=O)c3cn(C)cn3)cc2CC(=O)N([C@H](C)CO)C[C@@H]1C | – | activity change, negative = inhibition ([2]; at 26 µM (top of the series)): 37.6% (inactive)
58 | C[C@@H]1CCCCO[C@H](CN(C)C(=O)c2ccccc2)[C@H](C)CN([C@@H](C)CO)C(=O)c2cc(NC(=O)Nc3ccc(F)cc3)ccc2O1 | – | activity change, negative = inhibition ([2]; at 26 µM (top of the series)): 4.26% (inactive)
59 | CCc1sc(C(=O)Nc2ncccc2O)cc1C | – | activity change, negative = inhibition ([2]; at 26 µM (top of the series)): -12.6% (inactive)
